Laboratory results published in patent publication US20250352524A1, “PREVENTION OF METASTATIC OUTGROWTH USING TEAD INHIBITORS” (Georgetown University, priority 2024, published 2025).
“Also recorded” adds a separate entry of the source.

What was measured:
naïve C57/BL6 mice = assay: Tumor naïve C57/BL6 mice treated for two weeks, lung immune microenvironment; type: in vivo
Procedure: To determine iTEAD effect on lung immune microenvironment at steady state, naïve C57/BL6 mice were treated with iTEAD. […] In the absence of cancer cells in these naïve mice, no change in CD8+ T-cells was observed between treatment groups. […] On the cancer cell front, TEAD inhibition had no effect on proliferation yet reduced migration and 3D spheroid collective invasion of breast cancer cells in vitro.
To investigate how TEAD inhibition influences the immune microenvironment in the normal lung, C57BL/6 mice were treated with 30 mg/kg of VT107 or vehicle control via oral gavage for 2 weeks. Lung, spleen and blood tissues were harvested for immune cell analysis and RNA-sequencing (FIG. 9, Panel G). […] RNA-seq data was analyzed by Cibersortx (Chen et al., 2018) to deconvolute the abundance of immune cell types in the lung tissue using single-cell RNA-seq datasets.
Due to the shifts in immune signaling observed in the lung tissue upon TEAD inhibition (FIG. 9), immune cell populations were first analyzed by flow cytometry in the lungs and spleens of tumor naïve mice. Consistent with the Cibersort analysis of RNA-seq data, there was a decrease in the monocytes population and an increase in the tissue-resident alveolar macrophages (AM) (FIG. 10, Panel A). […] Next, it was sought to determine the specific effects of iTEAD treatment on lung resident versus bone-marrow derived macrophages, as the dynamics of these cell populations are crucial for the establishment of the metastatic niche (Ries et al., 2014; Qian et al., 2011). Macrophages were retrieved from the lungs by isolating F4/80+ cells, a specific marker for murine macrophages, by FACS (fluorescence-activated cell sorting) as well as bone marrow-derived macrophages from the femurs of naïve C57BL/6 mice that were then differentiated in vitro using macrophage colony stimulating factor (M-CSF). Macrophages were treated with 1 μM of VT107 for 24 hours before the conditioned media was collected and analyzed on a cytokine array. […] There was no change in the level of the other cytokines detected (FIG. 10, Panel B).
Single cell suspensions were washed 2× with PBS. Cells were then stained with Zombie NIR Fixable Viability Kit (Biolegend, 423106) or Zombie Aqua Fixable Viability Kit (Biolegend, 423102) for 20 minutes at room temperature, to identify dead cells. Next, cells were washed with FACS buffer (1×PBS+2% FBS) and incubated with conjugated antibodies binding to cell surface proteins, at 4 °C for 30 minutes. A combination of the following antibodies were used: anti-CD45-Spark Blue 550 (Biolegend, 103166), anti-CD3-PercP/Cy5.5 (Biolegend, 100217), anti-CD4-Pacific Blue (Biolegend, 116007), anti-CD8-BV785 (Biolegend, 100750), anti-CD25-BV650 (Biolegend, 102038), anti-CD45-AF700 (Biolegend, 103128), anti-CD45R (B220) (Biolegend, 563103), anti-SiglecF-APC (Miltenyi Biotec, 130-102-241), anti-CD11b-PE/Dazzle (Biolegend, 108745), anti-CD11c-FITC (Biolegend, 117306), anti-F480-PE/Cy7 (Biolegend, 123114), anti-Ly6G-BV785 (Biolegend, 127645), anti-Ly6C-BV570 (Biolegend, 128030), anti-CD206-AF700 (Biolegend, 141734), and anti-CD86-AF488 (Biolegend, 105018). Cells were fixed and permeabilized using the BD Cytofix/Cytoperm Fixation/Permeabilization Kit (BD Biosciences, #554714) prior to incubation with anti-Foxp3-AF647 (Biolegend, 126407), anti-Gata3-PE (Biolegend, 653803), anti-RORy t-BV421 (Biolegend, 562894), and anti-T-bet-BV711 (BD Biosciences, 4B10). After staining, cells were washed 2× and subjected to flow cytometry analysis using the BD FACSymphony Δ3 flow cytometer analyzer. Results were analyzed using FCS Express 7 Research (De Novo Software).
The total RNA from tissue or cell lines was extracted using RNeasy Mini Kit (Qiagen, #74104) according to the manufacturer's instructions. Total RNA integrity was assessed with the Agilent 2100 Bioanalyzer. The library preparation and next-generation sequencing (NGS) were performed at Novogene Corporation Inc. (Sacramento, CA, USA). […]

[1] = system: peritoneal macrophages and T-cells; assay: Cytokine array, pretreated peritoneal macrophages mixed with T-cells; type: cell-based, mouse
Text: To investigate whether the effect of iTEAD treatment on macrophages can enhance their crosstalk with T-cells in the lung microenvironment, peritoneal macrophages+/−iTEAD were first isolated and characterized as a model of resident macrophages for ex vivo experiments (FIG. 14, Panel A). It was observed that treatment with VT107 decreased gene expression of M2-like and fibrosis regulators, Aldh1a1 and Cc117 (Chen et al., 2020), as well as TEAD4 and its downstream target gene Ankrd1. […] The iTEAD pretreated peritoneal macrophages and untreated T-cells isolated from the spleen of tumor naïve mice (FIG. 14, Panel A) were then mixed for 5 hours before collecting the conditioned media for analysis. […] Next, these immune cell mixes were added to 4T1 spheres that were embedded into matrix. […] This effect was reversed by an IL12 neutralizing antibody. No change in cleaved caspase-3 in 4T1 cells in the presence of VT107-treated T-cells or macrophages alone, was detected at 24 hours (FIG. 14, Panels C and D). 4T1 cells were then plated and allowed to attach on electrode-coated arrays to monitor cancer cell viability before the addition of macrophages+/−iTEAD and T-cells. […] This reversal of T-cell cytotoxicity by IL12 antibodies was not observed in VT107-treated T-cells in the absence of macrophages (FIG. 15, Panel E) indicating a critical role for IL12 in the crosstalk between macrophages and T-cells.
Cells were grown in their recommended cell culture media and treated with […] VT107 for 24 or 72 hours. Conditioned media was collected and passed through a 0.2 micron PES filter then analyzed on a RayBio® Mouse Cytokine Array (#AAM-TCR-1) according to the manufacture's protocol. The array includes two spots for each cytokine. The luminescence signal was normalized to the positive control on each membrane, then to the vehicle treatment signal of each cytokine.

[2] = 30 mg/kg oral gavage 2 weeks, flow cytometry
[3] = macrophages pretreated 24 hrs with 1 μM VT107, mixed with untreated T-cells 5 hours
[4] = treated overnight with 1 μM VT107

VT107
alveolar macrophages in the lungs (naïve C57/BL6 mice; [2]): increase
infiltrating monocytes/macrophages in the lungs (naïve C57/BL6 mice; [2]): decrease
alveolar macrophages in the lungs (naïve C57/BL6 mice; 30 mg/kg oral gavage 2 weeks, flow cytometry, listed as iTEAD): robust increase; also recorded: shift
leukocytes fraction (naïve C57/BL6 mice; Cibersortx of RNA-seq): slight increase
monocyte fraction in lung tissue (naïve C57/BL6 mice; Cibersortx of RNA-seq): reduced
myeloid cells' fraction including tissue resident macrophages (naïve C57/BL6 mice; Cibersortx of RNA-seq): expanded
IL12 signaling pathway in lung (naïve C57/BL6 mice; Ingenuity pathway analysis): increase
inflammation (cytokine storm, S100 family, wound healing and fibrosis signaling pathways) in lung (naïve C57/BL6 mice; Ingenuity pathway analysis): overall reduction
lung gene expression, downregulated compared to upregulated genes (naïve C57/BL6 mice; RNA-sequencing): significantly higher number of downregulated genes
spleen gene expression (naïve C57/BL6 mice; RNA-sequencing): minimal changes
CD3+ cells in tumor naïve lungs (naïve C57/BL6 mice; flow cytometry): increase
CD4+ or CD8+ T-cell populations in tumor naïve lungs (naïve C57/BL6 mice; flow cytometry): not specifically
total macrophages, dendritic cells, eosinophils or neutrophils (naïve C57/BL6 mice; flow cytometry, analyzed tissues): No significant change
alveolar macrophages and infiltrating monocytes/macrophages in spleen or blood (naïve C57/BL6 mice; flow cytometry, listed as iTEAD): no change
CD8+ T-cells (naïve C57/BL6 mice; naïve mice, between treatment groups): no change
IL6 level in the cell mix [1, 3]: significantly increased
IL12 level in the cell mix [1, 3]: significantly increased
IL4 in T-cells [1, 4]: slightly increased
IL12 or IL6 levels in macrophages or T-cells alone [1, 4]: No significant change
